Reference: patent US6008245A, “Sulfonamide-substituted benzopyran derivatives, processes for their preparation, their use as a medicament, and pharmaceutical preparations comprising them” (priority 1997, dated 1999)

Tested on: K+ (ATP) channel
Test: not given
Conditions: known compounds; cited from earlier work

Structure (SMILES) | action on ATP-sensitive K+ channels
CC1(C)Oc2ccc(C#N)cc2[C@@H](N2CCCC2=O)[C@@H]1O (relative stereo) [cromakalim] | openers of ATP-sensitive K^+ channels

Biological target: T1, human IsK protein (UniProt P15382+P70057)
T1 construct: expressed in transfected cells; host or cells: Xenopus laevis oocytes injected with in vitro synthesized IsK RNA
Test: cell-based
Conditions: human IsK expressed in Xenopus oocytes; voltage jumps to -10 mV lasting 15 s; pH 7.5; room temperature; Hill equation

Structure (SMILES) | IC50
CC(=O)O[C@H]1[C@H](N(C)S(C)(=O)=O)c2cc(OCCCC(F)(F)F)ccc2OC1(C)C (racemic) [Example 21, (±)-trans-N-[3-Acetoxy-6-(4,4,4-trifluorobutoxy)-2,2-dimethylchroman-4-yl]-N-methyl-methanesulfonamide] | ~10000 nM
CN(C1=CC(C)(C)Oc2ccc(OCc3ccccc3)cc21)S(C)(=O)=O [Example 4, N-(6-Benzyloxy-2,2-dimethyl-2H-chromen-4-yl)-N-methyl-methanesulfonamide] | 1600 nM
COC(=O)CN([C@@H]1c2cc(OCc3ccccc3)ccc2OC(C)(C)[C@H]1O)S(C)(=O)=O (racemic) [Example 12, Methyl (±)-trans-[(6-benzyloxy-3-hydroxy-2,2-dimethylchroman-4-yl)-methanesulfonylamino]acetate] | 800 nM
CCS(=O)(=O)N(C)[C@H]1c2cc(OCCCC(F)(F)F)ccc2OC(C)(C)[C@@H]1O [Example 18, (3R, 4S)-(+)-N-[-3-Hydroxy-2,2-dimethyl-6-(4,4,4-trifluorobutoxy)chroman-4-yl]-N-methyl-ethanesulfonamide] | 100 nM
CCCCOc1ccc2c(c1)[C@@H](N(C)S(C)(=O)=O)[C@H](OC(C)=O)C(C)(C)O2 (racemic) [Example 6, (±)-trans-N-(3-Acetoxy-6-butoxy-2,2-dimethylchroman-4-yl)-N-methyl-methanesulfonamide] | > 10000 nM
CCCCN(C1=CC(C)(C)Oc2ccc(OCc3ccccc3)cc21)S(C)(=O)=O [Example 11] | 1600 nM
CCCCOc1ccc2c(c1)C(N(C)S(C)(=O)=O)=CC(C)(C)O2 [Example 7, N-(6-Butoxy-2,2-dimethyl-2H-chromen-4-yl)-N-methyl-methanesulfonamide] | 1600 nM
CCCOc1ccc2c(c1)C(N(C)S(C)(=O)=O)=CC(C)(C)O2 [Example 9, N-(6-Propoxy-2,2-dimethyl-2H-chromen-4-yl)-N-methyl-methanesulfonamide] | 2600 nM
CN(C1=CC(C)(C)Oc2ccc(OCCCC(F)(F)F)cc21)S(C)(=O)=O [Example 22, N-[6-(4,4,4-Trifluorobutoxy)-2,2-dimethyl-2H-chromen-4-yl]-N-methyl-methanesulfonamide] | 600 nM
CC(=O)O[C@H]1[C@H](N(C)S(C)(=O)=O)c2cc(OCc3ccccc3)ccc2OC1(C)C (racemic) [Example 2, (±)-trans-N-(6-Benzyloxy-3-acetoxy-2,2-dimethylchroman-4-yl)-N-methyl-methanesulfonamide] | 13000 nM
CCCCOc1ccc2c(c1)[C@@H](N(C)S(C)(=O)=O)[C@H](O)C(C)(C)O2 (racemic) [Example 5, (±)-trans-N-(6-Butoxy-3-hydroxy-2,2-dimethylchroman-4-yl)-N-methyl-methanesulfonamide] | 250 nM
CCCCOc1ccc2c(c1)C(N(CC)S(C)(=O)=O)=CC(C)(C)O2 [Example 15, N-(6-Butoxy-2,2-dimethyl-2H-chromen-4-yl)-N-ethyl-methanesulfonamide] | 1300 nM
CC1(C)Oc2ccc(OCCCC(F)(F)F)cc2[C@H](NS(C)(=O)=O)[C@H]1O [Example 23a, (3R,4S)-N-[3-Hydroxy-2,2-dimethyl-6-(4,4,4-trifluoro-butoxy)-chroman-4-yl]-methanesulfonamide] | 1700 nM
CN([C@@H]1c2cc(OCc3ccccc3)ccc2OC(C)(C)[C@H]1O)S(C)(=O)=O (racemic) [Example 1, (±)-trans-N-(6-Benzyloxy-3-hydroxy-2,2-dimethylchroman-4-yl)-N-methylmethanesulfonamide] | 200 nM
CO[C@H]1[C@H](N(C)S(C)(=O)=O)c2cc(OCc3ccccc3)ccc2OC1(C)C (racemic) [Example 3, (±)-trans-N-(6-Benzyloxy-3-methoxy-2,2-dimethylchroman-4-yl)-N-methyl-methanesulfonamide] | 6500 nM
CCCCOc1ccc2c(c1)[C@@H](N(CC)S(C)(=O)=O)[C@H](O)C(C)(C)O2 (racemic) [Example 14, (±)-trans-N-(6-Butoxy-3-hydroxy-2,2-dimethylchroman-4-yl)-N-ethyl-methanesulfonamide] | 200 nM
CCCCOc1ccc2c(c1)[C@@H](N(C)S(C)(=O)=O)[C@H](O)C(C)(C)O2 [Example 16, (3S, 4R)-(-)-N-(6-Butoxy-3-hydroxy-2,2-dimethylchroman-4-yl)-N-methyl-methanesulfonamide] | 400 nM
CCS(=O)(=O)N(C)[C@@H]1c2cc(OCc3ccccc3)ccc2OC(C)(C)[C@H]1O [Example 17, (3S, 4R)-(-)-N-(6-Benzyloxy-3-hydroxy-2,2-dimethylchroman-4-yl)-N-methyl-ethanesulfonamide] | 400 nM
CCCCN([C@@H]1c2cc(OCc3ccccc3)ccc2OC(C)(C)[C@H]1O)S(C)(=O)=O (racemic) [Example 10, (±)-trans-N-(6-Benzyloxy-3-hydroxy-2,2-dimethylchroman-4-yl)-N-butyl-methanesulfonamide] | 400 nM

Tested on: IKs
Test: not given
Conditions: cited from earlier work

Structure (SMILES) | blocking action on the IKs
CN1CCN(CCCCN2C(=O)CN(/N=C/c3ccc(-c4ccc(Cl)cc4)o3)C2=O)CC1 [azimilide] | blocking action on the IKs

Tested on: IKr
Test: not given
Conditions: class III antiarrhythmics; cited from earlier work

Structure (SMILES) | IKr block
CC(C)NC[C@@H](O)c1ccc(NS(C)(=O)=O)cc1 [d-sotalol] | block IKr predominantly or exclusively
